Measured values taken from patent US7189708B2, “Topical composition for skin” (Kao Corporation, priority 1999, dated 2007).
Peptide text beside a SMILES is read from it.

What was measured:
SD male rats = test: Maintenance of skin elasticity in rat (UV-B exposed hind limb pads; cutometer and SEM linearity of elastic fibers); format: in vivo; parameters: Ue value / Uf value: unit not given here; settings: for Ue value / Uf value: 10 μL on pad after UV-B, three times a week, six weeks, cutometer 500 hPa; for Ue value: solvent only 0.02125, no treatment 0.03294; for Uf value: solvent only 0.03333, no treatment 0.04833; for Linearity: linearity of elastic fibers A/(B×C) from SEM micrographs of rat pad, linear = 1, solvent only 0.5133, no treatment 0.7345
Protocol: Maintenance of Skin Elasticity in Rat
Three-week-old SD male rats were classified into three groups (five rats per group): a group of rats to which an 80% ethanol solution containing a test compound was applied to pads of hind limbs; a group of rats to which a solvent (80% ethanol) was applied to the pads; and a group of non-treated rats. Each pad was exposed to UV-B rays (less than 1 MED), and then the test compound-containing solution or the solvent was applied to the pad in an amount of 10 μL. The above procedure was carried out three times a week (every other day of the week days) for six weeks.
Skin elasticity was determined using a cutometer (model: SES575, product of Courage Kazaka) as follows. The skin of the pad was subjected to suction at 500 hPa for three seconds, and then released for three seconds. The displacement over six seconds was measured, to thereby obtain Ue and Uf values. The measurement was repeated five times for each pad.
The linearity of elastic fibers was analyzed according to the method of Imokawa et al. (J. Invest. Dermatol., 105, 254–258(1995)) through image analysis of an SEM micrograph. Specifically, samples for scanning electron microscopy (SEM) were prepared by fixing the pad of a rat with Mercox (product of Dainippon Ink and Chemicals, Inc.) under reflux, followed by digestion with formic acid. From SEM micrographs (×1000) of each of the samples, ten typical micrographs were selected and enlarged copies were made. Each of the enlarged micrographs was divided into 16 uniform regions. From each of the regions, any one of the elastic fibers was selected and traced on a transparent film with a line having a fixed width (width: 8 pixels). When the area surrounded by the line tracing the elastic fiber is called A, and the longitudinal length and lateral length of the minimum rectangle surrounding the trace are called B and C, respectively, the linearity of the elastic fiber is represented by A/(B×C). For example, when the trace of the elastic fiber is linear, the linearity becomes 1.

hairless mouse (HR/ICR) = test: Suppression of wrinkle formation in hairless mouse (UV-B exposure, topical application); settings: 100 μL on back after daily UV-B, 20 weeks, visual rating 0 (no wrinkle) to 4 (deep wrinkles), control 3.06 ± 0.13
Protocol: Immediately after the exposure, an 80% ethanol solution (100 μL) containing a 0.1% test compound was applied to the back. The above procedure was carried out daily for 20 weeks. […] In the control group, only 80% ethanol was applied to the back of each mouse during the test. After the test, wrinkle formation was visually observed, and the degree of wrinkle formation was evaluated against the following ratings (wrinkle index).
1: A few shallow wrinkles were formed.
2: A slight amount of wrinkles was formed.
3: Some wrinkles were formed.
4: Deep wrinkles were formed.

C3H mice = test: Hair growth suppression in mouse (shaved back, topical application); format: in vivo; settings: 100 μL twice a day on shaved back, area of hair regrowth after three weeks relative to control; for response vs control in vivo at 0.1 %: Mus musculus, topical, 504 h, 0.1% in 80% ethanol, read-out: Hair-growth suppression ratio; for Hair-growth suppression ratio: 1% in 80% ethanol
Protocol: Hair Growth Suppression in Mouse
The hair on a portion of the backs (size: 2 cm×4 cm) of groups of six-week-old C3H mice, each group consisting of five mice, was carefully shaved so as not to injure the skin using an electric clipper and electric shaver. To the thus-shaved portion, a sample was applied in an amount of 100 μL twice a day for four weeks. Test compounds were dissolved in a solvent (80% ethanol) to attain the concentrations shown in Table 3, to thereby prepare samples. In the control group, only the solvent was applied to the shaved portion. After three weeks, in order to observe hair regrowth, the shaved portion was photographed at a certain magnification, and the ratio of the area of hair regrowth (i.e., the ratio of the area of hair regrowth to that of the shaved area) was compared with that of the control group using an image analyzer. The hair growth suppression ratio (%) was represented by a relative value when the ratio of the area of the hair regrowth in the control group was taken as 100.

[1] = 0.1% test compound in 80% ethanol
[2] = 1% test compound in 80% ethanol

Row | Compound | Ue value (SD male rats; 0.1% in 80% ethanol) | Uf value (SD male rats; 0.1% in 80% ethanol) | Linearity (SD male rats; 0.1%) | Wrinkle Index (hairless mouse (HR/ICR); [1]) | response vs control in vivo at 0.1 % (C3H mice) | Wrinkle Index (hairless mouse (HR/ICR); [2]) | Hair-growth suppression ratio (C3H mice) | Ue value (SD male rats; 1% in 80% ethanol) | Uf value (SD male rats; 1% in 80% ethanol) | Linearity (SD male rats; 1%)
1 | O=C(O)CCNC(=O)[C@H](Cc1ccccc1)NCC(=O)O [Compound 1, N-(carboxymethyl)phenylalanyl-β-alanine] | 0.03153 ± 0.00523 | 0.04711 ± 0.00213 | 0.7221 ± 0.0299 | 1.25 ± 0.11 | 82.4% | – | – | – | – | –
2 | O=C(O)CCCNC(=O)[C@H](Cc1ccccc1)NCC(=O)O [Compound 2] | – | – | – | 2.01 ± 0.14 | 73.3% | – | – | – | – | –
3 | CC(C)C[C@H](NC(=O)[C@H](Cc1ccccc1)NCC(=O)O)C(=O)O [Compound 3] | 0.02985 ± 0.01021 | 0.04323 ± 0.01722 | 0.7013 ± 0.06551 | 1.82 ± 0.09 | 72.3% | – | – | – | – | –
4 | C[C@H](NC(=O)[C@H](Cc1ccccc1)NCC(=O)O)C(=O)O [Compound 4] | 0.03009 ± 0.00274 | 0.04533 ± 0.00971 | 0.7153 ± 0.0329 | 1.75 ± 0.12 | 80.5% | – | – | – | – | –
5 | O=C(O)CN[C@@H](Cc1ccccc1)C(=O)N[C@@H](CC(=O)O)C(=O)O [Compound 5] | 0.02694 ± 0.00157 | 0.04285 ± 0.00271 | 0.6652 ± 0.0239 | 2.21 ± 0.14 | 71% | – | – | – | – | –
6 | CC(=O)N[C@@H](Cc1ccccc1)C(=O)NCCC(=O)O [Compound 6] | 0.02433 ± 0.00921 | 0.03913 ± 0.00924 | 0.6078 ± 0.0195 | 2.57 ± 0.20 | 58.3% | – | – | – | – | –
7 | CN(C)[C@@H](Cc1ccccc1)C(=O)NCCC(=O)O [Compound 7] | 0.02623 ± 0.00874 | 0.0412 ± 0.00258 | 0.6423 ± 0.0433 | 2.34 ± 0.10 | 69.6% | – | – | – | – | –
8 | CCCN[C@@H](Cc1ccccc1)C(=O)NCCC(=O)O [Compound 8] | 0.02708 ± 0.00119 | 0.0427 ± 0.00657 | 0.6976 ± 0.0422 | 2.03 ± 0.09 | 77.8% | – | – | – | – | –
9 | CC(C)C[C@H](NCC(=O)O)C(=O)NCCC(=O)O [Compound 9] | 0.02793 ± 0.00697 | 0.04295 ± 0.00836 | 0.6892 ± 0.0157 | 2.11 ± 0.11 | 77.1% | – | – | – | – | –
10 | N[C@@H](Cc1ccccc1)C(=O)NCC(=O)O [Compound 11, Phe-Gly] (H-Phe-Gly-OH) | – | – | – | – | – | 2.82 ± 0.18 | 32.9% | – | – | –
11 | N[C@@H](Cc1ccccc1)C(=O)NCCC(=O)O [Compound 12, Phe-β-Ala] | – | – | – | – | – | 1.98 ± 0.20 | 90.4% | 0.03326 ± 0.01267 | 0.04572 ± 0.01862 | 0.7197 ± 0.0321
12 | N[C@@H](Cc1ccccc1)C(=O)N[C@@H](Cc1ccccc1)C(=O)O [Compound 13, Phe-Phe] (H-Phe-Phe-OH) | – | – | – | – | – | 2.64 ± 0.16 | 78.5% | – | – | –
13 | CC(C)C[C@H](NC(=O)[C@@H](N)Cc1ccccc1)C(=O)O [Compound 14, Phe-Leu] (H-Phe-Leu-OH) | – | – | – | – | – | 2.82 ± 0.22 | 70.9% | – | – | –
14 | N[C@@H](Cc1ccccc1)C(=O)N[C@@H](CC(=O)O)C(=O)O [Compound 16, Phe-Asp] (H-Phe-Asp-OH) | – | – | – | – | – | 2.50 ± 0.15 | 75.2% | – | – | –
15 | NC(Cc1ccccc1)C(=O)NCCS(=O)(=O)O (stereo not drawn) [Compound 17, Phe-Tau] | – | – | – | – | – | 1.99 ± 0.12 | 79.5% | 0.02894 ± 0.0114 | 0.04369 ± 0.00872 | 0.6913 ± 0.0341
